{"source": "patent US7323441B2", "about": "“Use of lupin conglutin for the treatment of type II diabetes” (Indena S.p.A., priority 2003, dated 2008)", "test_system": "glucose plasma levels", "experiment": "Hypoglycemizing activity in rats after oral glucose administration (2 g/kg)", "assay_type": "in vivo, rat", "settings": "50 mg/kg os, 30 min before glucose 2 g/kg os; male CD rats; AUC 0 to 90 min; mean±M.S.E.", "description": "Male CD strain rats, of the starting weight 275-300 g, were used. The animals were housed in makrolon cages in environment with automatic control of light (12 hour light/12 hour darkness cycles), temperature (21±1° C.) and humidity (60±5%).\nLupin conglutin gamma prepared as reported in Example 2 was used. 100 rats (divided into in 5 groups of […] animals each) were pre-treated (time−30 min) with: • Group 1: carrier (1% carboxymethylcellulose [CMC]; 2 ml/kg os) • Group 2: lupin conglutin gamma (50 mg/kg os in 1% CMC) • Group 3: lupin conglutin gamma (100 mg/kg os in 1% CMC) • Group 4: lupin conglutin gamma (200 mg/kg os in 1% CMC) • Group 5: metformin (50 mg/kg os in 1% CMC) […]\nImmediately before the glucose administration (time 0 min) and 30, 60 and 90 min after the glucose administration, all the animals (n=5 rats for each time) were anaesthetized with sodium thiopental (50 mg/kg i.p.) and 5 ml of blood was drawn from the vena cava. Blood samples were collected in syringes containing EDTA (7.5 mM) as anticoagulant, and immediately subjected to centrifugation (2000 g×10 min at 4° C.) to obtain the plasma necessary for the enzymatic quantitation of glucose.\nThe quantitation of the glucose in rat plasma was carried out in triplicate by enzymatic assay (absorbance at 505 nm) and the glucose concentration was expressed in mg/dl. […]"}
{"smiles": "CN(C)C(=N)N=C(N)N", "note": "[metformin]", "values": [{"measurement": "area under the curve (AUC) of glucose plasma levels", "result": "1565±201"}]}
